Like-named read-outs stand apart in the source and are kept apart here. Marks after values point to notes of the source that are not given here.
Experiments:
[1] = chronic administration, cited from earlier work
hCB1 receptors [2] = target: T1, hCB1 receptors (Homo sapiens, UniProt P21554); experiment: Antagonism of CP-55,940 inhibition of AC activity in intact CHO-hCB1 cells; format: cell-based; details: CHO-hCB1 cells
Protocol: (§1) After overnight seeding into 24-well plates and pre-incubation of cells with [^3H]adenine for 3–5 hr at 37°C as described above, media was removed and the indicated concentration of the SERM to be tested was added to all wells of the 24-well plate. […] Reactions were terminated and [^3H]cAMP isolated as described above.
(§2) Data presented are expressed as mean ± standard error of the mean (S.E.M.) for a minimum of three experiments, each performed in triplicate. GraphPad Prism version 6.0f (GraphPad Software Inc.) was used for all curve-fitting and statistical analyses. Non-linear regression for one-site competition was used to determine the IC50 for competition receptor binding. IC50 values were subsequently converted to Ki values (a measure of receptor affinity) by the Cheng-Prusoff equation [31]. Non-linear regression was also used to analyze concentration-effect curves to determine the EC50 or IC50 (measures of potency) and Emax or Imax (measures of efficacy) for GTPγS binding and adenylyl cyclase experiments, respectively. All dissociation constants and measurements of potency were converted to pKi, pKB, pEC50, or pIC50 values by taking the negative log of each value so that parametric tests could be used for statistical comparisons. To compare three or more groups, statistical significance of the data was determined by a one-way ANOVA, followed by post hoc comparisons using a Tukey's or Dunnett's test. To compare two groups, the non-paired Student's t-test was used.

hCB1 receptors [3] = target: T1, hCB1 receptors; experiment: [35S]GTPγS binding (G-protein activity), CHO-hCB1 membranes; format: biochemical; details: 10 μM
Protocol: (§3) CHO-hCB1, CHO-hCB2 and CHO-hMOR cells were homogenized individually with 10 complete strokes utilizing a 7ml Dounce glass homogenizer in an ice-cold buffer containing 50 mM HEPES pH 7.4, 3 mM MgCl2, and 1 mM EDTA as described previously. The homogenized samples were then centrifuged at 40,000 × g for 10 min at 4°C. Supernatants were discarded; the pellets re-suspended in the buffer, homogenized again, and centrifuged similarly twice more. After the final centrifugation step, supernatants were discarded and pellets were re-suspended in ice-cold 50 mM HEPES, pH 7.4 to achieve an approximate protein concentration of 10 mg/ml. Membrane homogenates were divided into aliquots and stored at −80°C for future use. A small aliquot of each membrane preparation was removed prior to freezing and the protein concentration was determined using BCA Protein Assay (Thermo Fisher Scientific, Waltham, MA).
(§4) The GTPγS binding assay to measure G-protein activation was performed as previously described. Briefly, in a total volume of 1 ml, 25 μg of CHO-hCB2, 50 μg of CHO-hCB1-Rx or 50 μg of CHO-hMOR membranes homogenates were added to each reaction mixture containing 0.1 nM [^35S]GTPγS, 20 mM HEPES, 10 mM MgCl2, 100 mM NaCl, 10 μM GDP, 0.1% bovine serum albumin and the indicated concentrations of ligand to be examined. After mixing, reaction mixtures were incubated at 30°C for 30 min. […] Nonspecific binding was defined by the amount of radioactivity remaining in the presence of 10 μM non-radiolabeled GTPγS. Reactions were terminated by rapid vacuum filtration through glass fiber filters followed by four washes with ice cold 50 mM HEPES (pH 7.4) containing 0.1% bovine serum albumin. Four ml of scintiverse scintillation fluid (Fisher Scientific, Waltham, MA) was added to the filters and the amount of radioactivity was quantified 24 hr later utilizing liquid scintillation spectrophotometry.
as §2, with “All dissociation constants and measurements of potency were converted to pKi, pKB, pEC50, or pIC50 values by taking the negative log of each value so that parametric tests could be used for statistical comparisons.” left out, “To compare two groups, the non-paired Student's t-test was used.” left out

hCB1 receptors [4] = target: T1, hCB1 receptors; experiment: Forskolin-stimulated intracellular [3H]cAMP in intact CHO-hCB1 cells; format: cell-based; details: concentration-effect curves
Protocol: CHO-hCB1, CHO-hCB2, or CHO-hMOR cells were plated separately in normal culture media into 24-well plates at a density of 6 × 10^6 cells/plate and incubated overnight at 37°C in 5% CO2. As previously described, the following day culture media was removed from each well and replaced with 500 μl pre-incubation mixture containing either HAM’s F-12 K (CHO-hCB1) or DMEM (CHO-hCB2 and CHO-hMOR) with 0.9% NaCl, 500 μM 3-isobutyl-1-methylxathine (IBMX) and 2 μCi/well [^3H]adenine. Cells were incubated for 3–5 hr at 37°C. The pre-incubation mix was removed and indicated concentrations of drugs were added to the individual wells for 15 min at 37°C in a Krebs-Ringer-HEPES solution (10 mM HEPES, 110mM NaCl, 25mM Glucose, 55mM Sucrose, 5mM KCl, 1mM MgCl2, 1.8 mM CaCl2, pH 7.4) containing IBMX, and 10 μM forskolin. […] Radioactivity contained in 4 ml of the final column eluate was counted by a Packard-Tri-carb 2100/TR liquid scintillation counter after adding 10 ml of liquid scintillation cocktail.
(§5) Data presented are expressed as mean ± standard error of the mean (S.E.M.) for a minimum of three experiments, each performed in triplicate. […] To compare three or more groups, statistical significance of the data was determined by a one-way ANOVA, followed by post hoc comparisons using a Tukey's or Dunnett's test. […]

hCB2 receptors [5] = target: T2, hCB2 receptors (Homo sapiens, UniProt P34972); experiment: Antagonism of CP-55,940 inhibition of AC activity in intact CHO-hCB2 cells; format: cell-based
T2 construct: expressed in transfected cells
T2 sequence (P34972 whole entry): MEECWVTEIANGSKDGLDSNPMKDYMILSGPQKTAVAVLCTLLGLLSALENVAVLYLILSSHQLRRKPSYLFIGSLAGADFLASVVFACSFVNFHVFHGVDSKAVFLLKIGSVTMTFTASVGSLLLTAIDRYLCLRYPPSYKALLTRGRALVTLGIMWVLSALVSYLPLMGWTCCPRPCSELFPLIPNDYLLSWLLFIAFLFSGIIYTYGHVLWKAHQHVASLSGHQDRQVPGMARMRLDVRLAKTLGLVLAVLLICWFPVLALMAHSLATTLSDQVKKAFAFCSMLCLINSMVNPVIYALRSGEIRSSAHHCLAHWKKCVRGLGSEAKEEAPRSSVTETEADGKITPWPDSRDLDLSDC
Protocol: as §1, §2

hCB2 receptors [6] = target: T2, hCB2 receptors; experiment: Forskolin-stimulated intracellular [3H]cAMP in intact CHO-hCB2 cells; format: cell-based; details: for EMAX, intracellular [3H]cAMP: forskolin-stimulated cAMP; for EMAX, intracellular [3H]cAMP / EC50: values only approximate
Protocol: CHO-hCB1, CHO-hCB2, or CHO-hMOR cells were plated separately in normal culture media into 24-well plates at a density of 6 × 10^6 cells/plate and incubated overnight at 37°C in 5% CO2. As previously described, the following day culture media was removed from each well and replaced with 500 μl pre-incubation mixture containing either HAM’s F-12 K (CHO-hCB1) or DMEM (CHO-hCB2 and CHO-hMOR) with 0.9% NaCl, 500 μM 3-isobutyl-1-methylxathine (IBMX) and 2 μCi/well [^3H]adenine. Cells were incubated for 3–5 hr at 37°C. The pre-incubation mix was removed and indicated concentrations of drugs were added to the individual wells for 15 min at 37°C in a Krebs-Ringer-HEPES solution (10 mM HEPES, 110mM NaCl, 25mM Glucose, 55mM Sucrose, 5mM KCl, 1mM MgCl2, 1.8 mM CaCl2, pH 7.4) containing IBMX, and 10 μM forskolin. Reactions were terminated by adding 50 μl 2.2N HCl and [^3H]cAMP was isolated by employing alumina column chromatography. Radioactivity contained in 4 ml of the final column eluate was counted by a Packard-Tri-carb 2100/TR liquid scintillation counter after adding 10 ml of liquid scintillation cocktail.
To determine if modulation of adenylyl cyclase activity by SERMs was mediated through CB2 receptors coupling to Gi/o proteins, additional cAMP assays were conducted following overnight treatment with pertussis toxin as described elsewhere. Briefly, CHO-hCB2 cells were seeded into 24-well plates as described above in normal culture media containing 100 ng/ml of pertussis toxin and incubated overnight at 37°C. Pertussis toxin-treated media was removed and measurement of intracellular [^3H]cAMP levels following indicated SERM treatments was conducted as described above.
as §2

hCB2 receptors [7] = target: T2, hCB2 receptors; experiment: [35S]GTPγS binding (G-protein activity), CHO-hCB2 membranes; format: biochemical; details: 10 μM
Protocol: as §3
as §4, with “Reactions were terminated by rapid vacuum filtration through glass fiber filters followed by four washes with ice cold 50 mM HEPES (pH 7.4) containing 0.1% bovine serum albumin.” left out
as §5

hCB2 receptors [8] = target: T2, hCB2 receptors; experiment: Competition receptor binding with [3H]CP-55,940, CHO-hCB2 membranes; details: [3H]CP-55,940 binding, CHO-hCB2, 0.2 nM [3H]CP-55,940, CHO-hCB2 membranes
Protocol: as §3
(§6) Competition receptor binding was performed as reported earlier. […] The total volume of the incubation mixture was 1 ml. All reactions were mixed and allowed to reach equilibrium binding by incubation at room temperature for 90 min. […] Binding was terminated by rapid vacuum filtration through glass fiber filters (Brandel, Gaithersburg, MD), followed by four 5 ml washes of ice-cold 50 mM Tris-HCl (pH 7.4) buffer containing 0.1% bovine serum albumin. Four ml of scintiverse scintillation fluid (Fisher Scientific, Waltham, MA) was added to the filters and the amount of radioactivity was quantified 24 hr later utilizing liquid scintillation spectrophotometry.
as §2

hCB1 receptors [9] = target: T1, hCB1 receptors; experiment: Competition receptor binding with [3H]CP-55,940, CHO-hCB1 membranes
Protocol: as §3, §6, §2

[10] = increase of forskolin-stimulated cAMP

T1 sequence (P21554 whole entry): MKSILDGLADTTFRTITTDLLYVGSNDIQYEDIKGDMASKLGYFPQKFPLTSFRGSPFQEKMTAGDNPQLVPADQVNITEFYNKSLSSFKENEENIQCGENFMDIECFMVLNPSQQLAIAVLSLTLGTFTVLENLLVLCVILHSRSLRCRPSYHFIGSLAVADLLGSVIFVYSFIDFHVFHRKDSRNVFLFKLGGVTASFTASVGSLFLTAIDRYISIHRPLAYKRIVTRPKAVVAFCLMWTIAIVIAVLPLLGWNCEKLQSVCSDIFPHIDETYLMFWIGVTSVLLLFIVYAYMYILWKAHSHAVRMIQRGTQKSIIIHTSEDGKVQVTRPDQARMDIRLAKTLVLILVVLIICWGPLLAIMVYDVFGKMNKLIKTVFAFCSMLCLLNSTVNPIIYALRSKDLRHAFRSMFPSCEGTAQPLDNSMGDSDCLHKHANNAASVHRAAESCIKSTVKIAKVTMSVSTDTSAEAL

SMILES: CC/C(=C(\c1ccc(O)cc1)c1ccc(OCCN(C)C)cc1)c1ccccc1 [4OHT, 4-hydroxytamoxifen]
- Concentration reached in serum ([1]; ref [40]): high nanomolar concentrations
- Levels accumulated in brain and breast tissue ([1]; ref [65], [66]): micromolar range

SMILES: Cc1c(C(=O)NN2CCOCC2)nn(-c2ccc(Cl)cc2Cl)c1-c1ccc(I)cc1 [AM-281]
- Type of antagonism of CP-55,940 (hCB1 receptors [2]): surmountable antagonism
- pKb (hCB1 receptors [2]; against CP-55,940, AM-281 1 μM, Z-4OHT 10 μM, Z-End 30 μM): 6.81 ± 0.061
- Kb (hCB1 receptors [2]; against CP-55,940, AM-281 1 μM, Z-4OHT 10 μM, Z-End 30 μM, read-out: Kb (antagonist dissociation constant)): 155 nM
- Shift (decrease) in potency (IC50) of CP-55,940 (hCB1 receptors [2]; AM-281 1 μM, Z-Tam 30 μM): greater than 8 fold
- IMAX of CP-55,940, intracellular [3H]cAMP (hCB1 receptors [2]; CP-55,940 alone or after pre-incubation with AM-281 1 μM, Z-Tam 30 μM, Z-4OHT 10 μM, Z-End 30 μM): 35.7 ± 0.9^a %
- Effect on basal [35S]GTPγS binding (hCB1 receptors [3]): decreased
- IMAX, inhibition of basal [35S]GTPγS binding (hCB1 receptors [3]): 33. ± 3.2%
- Effect on basal cAMP levels (hCB1 receptors [4]): did not alter cAMP levels

SMILES: COc1ccc(C(=O)c2c(C)n(CCN3CCOCC3)c3cc(I)ccc23)cc1 [AM-630]
- Type of antagonism of CP-55,940 (hCB2 receptors [5]): parallel rightward-shift
- IMAX of CP-55,940, intracellular [3H]cAMP (hCB2 receptors [5]; CP-55,940 alone or after pre-incubation with AM-630 1 μM, Z-Tam 10 μM, Z-4OHT 10 μM, Z-End 30 μM): 31.7 ± 0.3^a %
- pKb (hCB2 receptors [5]; against CP-55,940, AM-630 1 μM, Z-Tam 10 μM, Z-4OHT 10 μM): 7.26 ± 0.064
- Kb (hCB2 receptors [5]; against CP-55,940, AM-630 1 μM, Z-Tam 10 μM, Z-4OHT 10 μM, listed as +AM-630, read-out: Kb (antagonist dissociation constant)): 55 nM
- Kb (hCB2 receptors [5]; against CP-55,940, AM-630 1 μM, Z-Tam 10 μM, Z-4OHT 10 μM, read-out: Kb (antagonist dissociation constant)): 55.4 nM
- EMAX, intracellular [3H]cAMP (hCB2 receptors [6]): 214 ± 6.5%
- pEC50, intracellular [3H]cAMP (hCB2 receptors [6]; increase of forskolin-stimulated cAMP, mean ± SEM): 6.40 ± 0.096
- EC50 (hCB2 receptors [6]; [10]): 398 nM
- IMAX, decrease in basal G-protein activity ([35S]GTPγS binding) (hCB2 receptors [7]): 28.7%

SMILES: CC/C(=C(\c1ccc(O)cc1)c1ccc(OCCN(C)C)cc1)c1ccccc1 [E-4OHT, 4-hydroxytamoxifen]
- Ki (hCB2 receptors [8]): 957 nM
- Ki (hCB1 receptors [9]; Ki, [3H]CP-55,940 binding, CHO-hCB1, 0.2 nM [3H]CP-55,940, CHO-hCB1 membranes): 1240 nM
- Selectivity (CB1/CB2) (hCB1 receptors [9]; ratio hCB1-Ki/hCB2-Ki): 1.30
- EMAX, intracellular [3H]cAMP (hCB2 receptors [6]): 352 ± 52^a^,^b %
- EC50 (hCB2 receptors [6]; [10]): 9120 nM
- Effect on basal [35S]GTPγS binding (hCB1 receptors [3]): did not significantly alter

From PMC5147891 (PLoS ONE, 2016)
